For the assay, the target named is T. gondii ME49Luc in IFN-y HeLa, luciferase, 72 h. Briefly: T. gondii growth inhibition with IFN-gamma, dose response, cell-based, ME49Luc, HeLa, luciferase, 72 h (AID 1259418).

Values joined by “and” are separate entries in the source; they are usually repeats but may differ in a detail not shown here. Equal values may be shown once. Results filed as inconclusive are left out. Active and inactive are the calls of the source.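 How the source made its calls: active means fitted half-maximal concentration of signal decrease at or below twice the sample's top tested concentration; inconclusive means flat curve between -70 and -30 percent, or poor fit; inactive means flat within 30 percent, signal rise, or potency above limit.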

The term AC50 denotes the concentration at which the activity in the assay is half-maximal. `CCc1nc(OCC(=O)Nc2ccc(F)c(Cl)c2)c2ccccc2n1`: the AC50 was > 39 µM (inactive).

Take `N#Cc1ccc(-c2ccc([C@@H]3[C@@H]4CN(S(=O)(=O)Cc5ccccc5)C[C@H]3N4)cc2)cc1`: the AC50 was 6.55 µM and 15.5 µM.

For `CCCNC(=O)N1C[C@@H]2N[C@H](C1)C2c1ccc(-c2cccc(F)c2)cc1` (some centres undefined), the AC50 was 18.2 µM.

For the compound `O=S(=O)(c1ccc2c(c1)CCCC2)N1CCC2(CC1)NCCN=C2NCc1ccc2c(c1)OCO2`, the half-maximal activity concentration (AC50) is 11.1 µM.

For the compound `COc1ccc(C#Cc2ccc([C@H]3[C@H]4CN(C(=O)NC(C)C)CC(=O)N4[C@H]3CO)cc2)cc1`, the concentration at half-maximal activity (AC50) was 18.5 µM.

On to `OC1(c2cccc(C(F)(F)F)c2)CCN(Cc2ccc3[nH]ccc3c2)CC1`, for which the half-maximal activity concentration (AC50) is 33.5 µM.

For the compound `CCOC(=O)c1ccc(NC(=O)N2CCN(Cc3nc(-c4ccc(C)cc4)oc3C)CC2)cc1`, the AC50 was 37.2 µM.

On to `Cc1cc(C2CCCN2C(=O)Cn2nc(C(F)(F)F)c3c2CCCC3)no1` (centres undefined), for which the AC50 is 34.3 µM.

`Cn1nc2c(c1C(=O)Nc1ccc(N3CCCCC3)c(F)c1)CCCC2`: the AC50 is 15.9 µM.

Turning to `CCN1CCCC1CNc1nc(-c2ccc(OC)cc2)nc2ccccc12` (centres undefined), the AC50 was 15.1 µM.

In the case of `COc1cccc(S(=O)(=O)N2CCCCN3[C@H](C2)[C@@H](c2ccc(C#CCC(C)C)cc2)[C@@H]3CO)c1`, the half-maximal activity concentration (AC50) was 15.3 µM.

`Cc1cccc(-n2ncc3c(NCc4cccc(Cl)c4)ncnc32)c1`: the AC50 is 24.5 µM.

As for `CCOc1ccc(-c2nc(CN3CCN(C(=O)Nc4ccc(C)cc4Cl)CC3)c(C)o2)cc1`, the AC50 was 24.1 µM.

On to `CCc1nc(OCC(=O)NCc2ccccc2)c2ccccc2n1`, for which the concentration at half-maximal activity (AC50) was 21.9 µM.

Regarding `Cc1ccc(-c2nc(CN(c3ccccc3)S(=O)(=O)c3cccs3)c(C)o2)cc1`, the AC50 is 10.8 µM.

On to `O=S(=O)(c1ccccc1)N1CCc2c([nH]c3ccccc23)C1c1ccc(F)c(F)c1` (centres undefined), for which the half-maximal activity concentration (AC50) was 13.9 µM.

With `O=C(NCCCN1CCCC1)C1CCN(Cc2cc3ccccc3n2Cc2ccccc2Cl)CC1`, the AC50 is 25.8 µM.

As to `COc1ccc(Cc2nnc(NC(=O)CC(C)C)s2)cc1`, the AC50 is 11.3 µM.

For `O=S(=O)(c1ccc2c(c1)CCCC2)N1CCC2(CC1)NCCN=C2NCc1ccc(F)cc1`, the AC50 is 9.4 µM.

Regarding `COCC(=O)N1[C@@H](C#N)[C@H](c2ccc(C#CCC3CCCC3)cc2)[C@@H]1CO`, the half-maximal activity concentration (AC50) was 38.3 µM.

As for `COc1ccc(-c2nc(CN(c3ccccc3)S(=O)(=O)c3ccccc3)c(C)o2)cc1OC`, the half-maximal activity concentration (AC50) is 3.77 µM.

With `COc1ccc(-n2nnc3c(N4CCN(C(=O)C(=O)c5c[nH]c6ccccc56)CC4)ncnc32)cc1`, the AC50 was 20.3 µM.

With `Cc1ccc(CNC2=NCCNC23CCN(S(=O)(=O)c2ccc4c(c2)CCCC4)CC3)cc1`, the concentration at half-maximal activity (AC50) was 19.4 µM.

Turning to `COc1ccc(-c2nc(NCCc3ccc(OC)c(OC)c3)c3ccccc3n2)cc1`, the half-maximal activity concentration (AC50) was 17.4 µM.

With `O=C(c1ccc2c(c1)OCO2)N1C[C@@H]2N[C@H](C1)C2c1ccc(/C=C/c2ccccc2)cc1` (some centres undefined), the AC50 is 8.94 µM and 21.9 µM.

Consider `CS(=O)(=O)N1CSC[C@@H]1C(=O)NCCc1csc(-c2ccccc2)n1`, for which the AC50 is 30.8 µM.

As for `COc1cccc(-c2nc3c(s2)CN(S(=O)(=O)c2cc(C)ccc2C)CC3)c1`, the AC50 was 6.71 µM and 7.85 µM.

With `COc1ccc(-c2nc(NCCCN3CCCC(C)C3)c3ccccc3n2)cc1` (centres undefined), the AC50 was > 20 µM (inactive).

As for `CCOc1ccccc1-c1nc(CN(c2ccc(C)cc2)S(=O)(=O)c2cccs2)c(C)o1`, the half-maximal activity concentration (AC50) is 11.2 µM.

With `CCc1ccc(S(=O)(=O)N2CCC3(CC2)NCCN=C3NCc2ccc(F)c(Cl)c2)cc1`, the AC50 is 4.73 µM.

On to `O=C(Cc1cccnc1)N1CC(=O)N2[C@H](CO)[C@@H](c3ccc(C#CC4CCCCC4)cc3)[C@H]2C1`, for which the concentration at half-maximal activity (AC50) was 16.4 µM.

Turning to `COc1ccc(-n2c(C)c([N+](=O)[O-])c3ccc(O)cc32)cc1`, the concentration at half-maximal activity (AC50) is 1.41 µM.

With `CC(=O)NC1=NN(C(C)=O)C(C)(c2ccccc2)S1` (centres undefined), the half-maximal activity concentration (AC50) was 11 µM and 6.03 µM.

On to `C/C=C/c1ccc([C@H]2[C@@H](CO)N3CCCCN(S(=O)(=O)c4ccc(OC)cc4)C[C@@H]23)cc1`, for which the AC50 was 18.4 µM.

Take `COc1ccc(N(Cc2nc(-c3ccc(C)cc3)oc2C)S(=O)(=O)c2ccccc2)cc1`: the concentration at half-maximal activity (AC50) was 15.2 µM.

Consider `CC(C)Cc1ccc(S(=O)(=O)N2CCC3(CC2)NCCN=C3NCc2ccc(Cl)cc2)cc1`, for which the concentration at half-maximal activity (AC50) is 12.4 µM.

On to `CCc1ccc(S(=O)(=O)N2CCC3(CC2)NCCN=C3NCc2ccc(Cl)cc2)cc1`, for which the AC50 is 7.78 µM.

On to `N#Cc1cccc(-c2ccc(C3[C@@H]4CN(C(=O)Nc5ccc(C(F)(F)F)cc5)C[C@H]3N4)cc2)c1` (some centres undefined), for which the AC50 was 5.28 µM.

For `Cc1ccc(Cn2c(CN3CCC(C(=O)NCCCN4CCCC4)CC3)cc3ccccc32)cc1`, the concentration at half-maximal activity (AC50) is 13.4 µM.

Take `CC(C)CC#Cc1ccc([C@@H]2[C@H](CO)N3C(=O)CN(C(=O)Nc4cc(F)ccc4F)C[C@@H]23)cc1`: the half-maximal activity concentration (AC50) is 12.6 µM and 4.61 µM.

In the case of `CCc1c2c(nc3ccc(OC(=O)N4CCC(N5CCCCC5)CC4)cc13)-c1cc3c(c(=O)n1C2)COC(=O)[C@]3(O)CC`, the half-maximal activity concentration (AC50) was 21 µM.

In the case of `CSc1cccc(NC(=O)CN2CCC3(CC2)N=C(c2cccc(Cl)c2)C(=O)N3)c1`, the half-maximal activity concentration (AC50) is 23.8 µM.

In the case of `CC(=O)N(C)C1(c2ccccc2)CCN(CCC[C@]2(c3ccc(Cl)c(Cl)c3)CCCN(C(=O)c3ccccc3)C2)CC1`, the AC50 is 12 µM.

For `C[C@H]1CN([C@@H](C)CO)C(=O)c2cccc(NS(=O)(=O)c3ccc(F)cc3)c2O[C@H]1CN(C)Cc1ccc(Cl)c(Cl)c1`, the concentration at half-maximal activity (AC50) was 19.2 µM and 11.7 µM.

In the case of `COc1ccccc1S(=O)(=O)N1CC[C@@H]2[C@H]1c1cc(-c3cccc(C#N)c3)ccc1N(C)[C@H]2CO`, the AC50 was 18.9 µM.

As to `COc1ccccc1-c1nc(C)c(-c2ccc(SCc3ccccc3Cl)nn2)s1`, the AC50 is > 39 µM (inactive).

As to `COc1ccc(N(Cc2nc(-c3ccccc3)oc2C)S(=O)(=O)c2ccccc2C)cc1`, the half-maximal activity concentration (AC50) is 11.6 µM.

As to `Cc1ccccc1-c1ccc([C@H]2[C@@H](CO)N3CCCCN(S(=O)(=O)Cc4ccccc4)C[C@H]23)cc1`, the half-maximal activity concentration (AC50) is 17.6 µM and 13.3 µM.

For the compound `Cc1csc(-c2cc(S(=O)(=O)NCCCN3CCC(C)CC3)c(C)s2)n1`, the AC50 was > 39 µM (inactive).

For the compound `Nc1ncnc2c1ncn2[C@@H]1O[C@H](C[C@@H](N)CC[C@H](N)C(=O)O)[C@@H](O)[C@H]1O`, the concentration at half-maximal activity (AC50) was 0.907 µM.

Take `CCc1ccccc1S(=O)(=O)N1CCC(C(=O)NCCc2csc(-c3ccccc3)n2)CC1`: the AC50 was 17.5 µM.

On to `CC(C)C#Cc1ccc([C@@H]2[C@@H](CO)N(C(=O)c3cccc(F)c3)[C@H]2C#N)cc1`, for which the AC50 is 14.2 µM and 27.9 µM.

For `OC[C@H]1Nc2ccc(C#Cc3ccc(F)cc3)cc2[C@H]2[C@@H]1CCN2Cc1ccc2c(c1)OCO2`, the AC50 is 20 µM.

`O=C(CCn1c2c(c3ccccc31)CCCC2)N1CCC(c2ccncc2)CC1`: the AC50 was 15.3 µM.

As to `COc1ccccc1-c1ccc([C@@H]2[C@H](CO)N3CCCCN(C(=O)c4cccnc4)C[C@@H]23)cc1`, the half-maximal activity concentration (AC50) is 17.2 µM.

Take `COc1ccc(-c2nc(NC3CC3)c3ccccc3n2)cc1`: the AC50 was 14.9 µM.

As to `C(=C\c1ccc(C2[C@H]3CNC[C@@H]2N3CC2CCOCC2)cc1)/c1ccccc1` (some centres undefined), the AC50 was 26.3 µM.

Take `Cc1ccccc1Cn1c(CN2CCC(C(=O)NCCCN3CCCC3=O)CC2)cc2ccccc21`: the AC50 is > 39 µM (inactive).

For `Cc1ccccc1CN1C[C@@H]2C[C@H](C(=O)Nc3ccccc3)[C@@H](C1)O2`, the AC50 is 10.5 µM.

As for `N#C[C@H]1[C@H](c2ccc(C#Cc3ccccc3F)cc2)[C@@H](CO)N1C(=O)c1cccnc1`, the AC50 is > 39 µM (inactive).

In the case of `Cc1ccc(Nc2nc(-c3ccccc3Cl)nc3ccccc23)cc1`, the AC50 is 14.2 µM.

As for `COc1ccc(S(=O)(=O)N2CCCCN3[C@H](CO)[C@@H](c4ccc(C#CCC(C)C)cc4)[C@H]3C2)cc1`, the AC50 was 4.13 µM and 4.65 µM.

In the case of `COc1cccc(CN2CCC3(COCc4cnc(-c5ccccc5)nc43)C2)c1` (centres undefined), the AC50 was 17.4 µM.

On to `Cc1ccccc1-c1nc(CN2CCN(C(=O)NCCc3ccccc3)CC2)c(C)o1`, for which the concentration at half-maximal activity (AC50) was 17.4 µM.

`Cc1cccc(CN2CCC3(CC2)N=C(c2cccc(C)c2)C(=O)N3)c1`: the AC50 was > 20 µM (inactive).

As to `COc1ccc(CNC2=NCCNC23CCN(S(=O)(=O)c2ccc(C(C)C)cc2)CC3)cc1`, the AC50 is 19.9 µM.

For the compound `Cc1cc(C)c(S(=O)(=O)N2CCC[C@@H]2C(=O)NCCc2csc(C)n2)c(C)c1`, the half-maximal activity concentration (AC50) was 31.9 µM.

As to `O=C(Nc1ccc(-c2nc(-c3ccccc3)co2)cc1)c1cccc(Cl)c1`, the half-maximal activity concentration (AC50) is 35.3 µM.

For the compound `COC(=O)c1ccccc1NC(=O)COc1nc(C)nc2ccccc12`, the concentration at half-maximal activity (AC50) is 20.9 µM.

On to `Cc1ccc(CNC2=NCCNC23CCN(S(=O)(=O)c2ccc(C)c(C)c2)CC3)cc1`, for which the AC50 is 7.83 µM.

As to `CCOc1ccc(NC(=O)CN2CCC3(CC2)N=C(c2ccc(Cl)cc2)C(=O)N3)cc1`, the AC50 is > 39 µM (inactive).

Consider `Cc1ccc(-c2nc(Cn3c(=O)c4c(C)cc(C)nc4n(-c4ccccc4)c3=O)c(C)o2)cc1`, for which the AC50 was 30.9 µM.

Turning to `Cc1cccc(C(=O)N2CCC(C(=O)NCCc3csc(C)n3)CC2)c1`, the AC50 is 26.4 µM.

Turning to `CC(C)c1cc(C2CCCN2Cc2c[nH]c3ccccc23)on1` (centres undefined), the AC50 was 7.79 µM and 14 µM.

Take `O=C(Cc1cccnc1)N1CC(=O)N2[C@H](CO)[C@@H](c3ccc(/C=C/c4ccccc4)cc3)[C@@H]2C1`: the concentration at half-maximal activity (AC50) is 19.3 µM.

`Cc1ccc(CNC2=NCCNC23CCN(S(=O)(=O)c2ccc(Cl)s2)CC3)cc1`: the half-maximal activity concentration (AC50) was 5.08 µM.

Turning to `CN1C(=O)CCc2cc(NC(=O)Cc3ccc(Cl)cc3)ccc21`, the AC50 is 23.8 µM.

On to `C[C@@H]1CN([C@H](C)CO)C(=O)Cc2cc(NC(=O)C3CCCCC3)ccc2O[C@H]1CN(C)Cc1ccc(Cl)c(Cl)c1`, for which the half-maximal activity concentration (AC50) is 17.4 µM.

Take `O=C(O)CC1CCC(c2ccc(-c3ccc(Nc4ccc(C(F)(F)F)nc4)cn3)cc2)CC1` (centres undefined): the AC50 was 19 µM.

Take `Cc1ccc(-c2nc(CN3CCN(C(=O)NCCc4ccccc4)CC3)c(C)o2)cc1`: the AC50 was > 39 µM (inactive).

As to `O=C(c1cccc(F)c1)N1CCCCN2[C@H](C1)[C@H](c1ccc(C#CC3(O)CCCC3)cc1)[C@@H]2CO`, the half-maximal activity concentration (AC50) is 9.01 µM.

With `COc1ccc(Cl)cc1NC(=O)COc1nc(C)nc2ccccc12`, the half-maximal activity concentration (AC50) was 24.1 µM.

For the compound `Cc1oc(-c2cccc(Cl)c2)nc1CN1CCc2c(sc3c2CCCC3)C1c1ccccc1` (centres undefined), the AC50 was 6.85 µM.

As to `N#C[C@@H]1N[C@H](CO)[C@H]1c1ccc(-c2cccc(F)c2)cc1`, the AC50 was 26.3 µM.

The values are drawn from PubChem BioAssay AID1259418 (Broad Institute, 2018).
